From paper PMC4963475, “Two functionally distinct kinetochore pools of BubR1 ensure accurate chromosome segregation” (Nature Communications, 2016) come the findings set out here.

One assay has as its target T1, BubR1/Bub3 (Homo sapiens, UniProt O43684+O60566).
T1 construct: made in house; host or cells: HEK293 cells (transient co-transfection)
As to the kind of experiment: MicroScale Thermophoresis (MST) affinity of MELT peptides for BubR1/Bub3. It is filed as binding. Particulars: for Binding of BubR1/Bub3 to phosphorylated MELT peptide, in words: 50 mM NaCl.

The target of the next assay is T2, Bub1(1–553)/Bub3 (Homo sapiens, UniProt O43683+O43684).
T2 construct: 15 μg 3 × FLAG–Bub1(1–553)-expressing plasmid; made in house; host or cells: HEK293 cells (transient co-transfection)
As to the kind of experiment: MicroScale Thermophoresis (MST) affinity of MELT peptides for Bub1(1–553)/Bub3. It counts as binding. Particulars: for Binding of Bub1(1–553)/Bub3 to phosphorylated MELT peptide, in words: 50 mM NaCl. The source says: We next wanted to quantitatively compare the ability of BubR1/Bub3 and Bub1/Bub3 to bind MELTp repeats. For this, we purified a FLAG–Bub1(1–553)/Bub3 complex in parallel with FLAG–BubR1/Bub3 (we could not obtain sufficient yields of the full-length Bub1/Bub3 complex, but have recently shown that Bub1 1–553 fully supports SAC signalling[29]). To determine the affinity of the complexes to MELTp repeats, we used MicroScale Thermophoresis (MST). Purified BubR1/Bub3 and Bub1(1–553)/Bub3 complexes were fluorescently labelled with maleimide chemistry for these measurements and tested for their ability to bind phosphorylated MELT12, MELT16 and MELT18 peptides (Fig. 2e–g; Supplementary Fig. 2). The binding of BubR1/Bub3 to MELT12 was strongly dependent on phosphorylation and the measured affinity was sensitive to the salt concentration in the buffer as expected for an interaction depending on electrostatic interactions with the phosphorylated threonine[26] (Fig. 2e–g; Supplementary Fig. 2C). We conducted the affinity measurements at 50 mM NaCl as this produced the best quality data for the Bub1(1–553)/Bub3 complex.
Ten 15-cm dishes were each seeded with 6 × 10^6 HEK293 cells and the next day each transfected with 15 μg 3 × FLAG–BubR1 or 15 μg 3 × FLAG–Bub1(1–553)-expressing plasmid and 15 μg untagged Bub3-expressing plasmid using lipofectamine 2000 (Invitrogen). Forty-eight hours after transfection, the cells were collected by trypsination and cells washed in cold PBS with 1 mM phenylmethyl sulphonyl fluoride. The cells were resuspended in 5 ml buffer A (350 mM NaCl, 50 mM Tris·HCl (pH 8.0), 0.05% NP-40 and protease inhibitor cocktail (Roche)) and lysed using a nitrogen cavitation bomb. Lysate was clarified by centrifugation and then incubated with 300 μl FLAG-affinity resin (Sigma-Aldrich) for 90 min at 4 °C. The FLAG resin was washed with 20 ml buffer A and proteins eluted with three times 300 μl buffer A containing […] 3 × FLAG peptide (Sigma). The eluates were pooled and concentrated to 500 μl and loaded on a Superdex 200 10/300 GL column equilibrated with buffer B (150 mM NaCl, 25 mM HEPES·KOH (pH 7.8), 5% glycerol and 0.5 mM TCEP) and peak fractions eluting at ∼500 kDa pooled and concentrated using a vivaspin-4 concentration device. Proteins were stored at −80 °C.
MST experiments were performed on a NanoTemper Monolith NT.115 instrument with blue/red channels. […] The fluorescently labelled protein complexes were mixed with equivalent volumes (10 μl) of a twofold serial dilution of the different peptides starting at concentrations between 10 and 20 times the calculated KD. The fraction of bound protein was derived from the averaged (1 s averaged) normalized fluorescence signals at t=8 s of the labelled complexes at different ligand concentrations. […]
For orientation: Microscale thermophoresis detects binding through changes in fluorescence in a small temperature gradient.

The subject of a further assay is HeLa cells. As to conditions: Bub1 RNAi 48 h, nocodazole 2 h, reversine 0.5 μM, 25–35% without reversine.

Non-standard residues stand in square brackets, D forms with d. Residues, ends and D or L forms follow the SMILES beside them. pT = C[C@@H](OP(=O)(O)O)[C@H](N)C(=O)O; Nle = CCCC[C@H](N)C(=O)O

T1 sequence (O60566 whole entry): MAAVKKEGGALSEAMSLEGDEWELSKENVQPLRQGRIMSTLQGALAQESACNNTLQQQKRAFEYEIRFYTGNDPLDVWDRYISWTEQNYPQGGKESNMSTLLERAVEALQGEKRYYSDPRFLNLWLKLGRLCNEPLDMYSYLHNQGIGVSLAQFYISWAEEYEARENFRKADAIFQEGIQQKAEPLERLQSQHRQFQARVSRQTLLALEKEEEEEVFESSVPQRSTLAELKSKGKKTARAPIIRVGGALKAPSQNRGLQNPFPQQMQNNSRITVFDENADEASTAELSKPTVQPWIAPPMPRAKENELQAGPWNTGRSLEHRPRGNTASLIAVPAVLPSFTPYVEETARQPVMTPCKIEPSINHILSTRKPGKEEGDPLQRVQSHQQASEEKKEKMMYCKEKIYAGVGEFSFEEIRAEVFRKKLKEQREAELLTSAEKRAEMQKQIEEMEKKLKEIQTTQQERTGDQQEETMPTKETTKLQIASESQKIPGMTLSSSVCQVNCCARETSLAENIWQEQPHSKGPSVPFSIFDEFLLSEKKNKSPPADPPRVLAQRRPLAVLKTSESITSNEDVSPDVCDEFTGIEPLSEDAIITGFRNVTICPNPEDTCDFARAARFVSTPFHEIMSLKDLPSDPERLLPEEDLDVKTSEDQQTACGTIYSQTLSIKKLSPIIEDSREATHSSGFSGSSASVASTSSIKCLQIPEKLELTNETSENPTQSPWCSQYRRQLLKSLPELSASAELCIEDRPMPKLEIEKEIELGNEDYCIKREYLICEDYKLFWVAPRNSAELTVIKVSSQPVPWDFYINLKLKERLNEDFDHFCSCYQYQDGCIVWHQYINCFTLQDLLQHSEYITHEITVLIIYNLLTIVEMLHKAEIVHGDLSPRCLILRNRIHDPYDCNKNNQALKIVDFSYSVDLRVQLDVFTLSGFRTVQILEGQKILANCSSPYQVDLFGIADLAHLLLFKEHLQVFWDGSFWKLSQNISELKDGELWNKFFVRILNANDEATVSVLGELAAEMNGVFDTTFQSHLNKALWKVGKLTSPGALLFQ
T1 sequence (O43684 whole entry): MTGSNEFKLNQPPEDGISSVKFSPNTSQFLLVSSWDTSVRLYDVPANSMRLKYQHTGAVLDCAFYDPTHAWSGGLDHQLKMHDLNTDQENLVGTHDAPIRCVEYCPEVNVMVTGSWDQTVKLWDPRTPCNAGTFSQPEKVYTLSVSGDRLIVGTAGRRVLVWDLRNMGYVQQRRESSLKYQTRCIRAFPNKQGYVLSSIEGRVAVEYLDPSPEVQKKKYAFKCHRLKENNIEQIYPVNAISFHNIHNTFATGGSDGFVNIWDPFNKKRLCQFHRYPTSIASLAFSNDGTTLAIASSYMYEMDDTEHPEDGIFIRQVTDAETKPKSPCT
T2 sequence (O43683 1-553 limits assumed): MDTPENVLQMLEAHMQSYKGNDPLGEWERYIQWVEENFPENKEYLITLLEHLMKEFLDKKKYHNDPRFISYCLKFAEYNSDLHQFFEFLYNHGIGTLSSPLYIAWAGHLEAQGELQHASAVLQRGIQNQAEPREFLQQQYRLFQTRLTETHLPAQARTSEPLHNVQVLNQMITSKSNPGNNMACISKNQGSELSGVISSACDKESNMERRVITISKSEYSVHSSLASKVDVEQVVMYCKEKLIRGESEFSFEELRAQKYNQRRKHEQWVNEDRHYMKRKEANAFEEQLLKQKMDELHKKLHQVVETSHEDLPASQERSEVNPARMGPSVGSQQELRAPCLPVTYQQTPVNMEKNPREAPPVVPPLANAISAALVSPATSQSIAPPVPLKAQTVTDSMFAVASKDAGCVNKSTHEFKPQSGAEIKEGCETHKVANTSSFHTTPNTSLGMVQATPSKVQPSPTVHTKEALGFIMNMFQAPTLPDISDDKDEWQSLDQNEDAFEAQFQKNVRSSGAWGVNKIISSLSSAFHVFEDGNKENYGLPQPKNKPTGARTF
T2 sequence (O43684 whole entry): as the sequence (O43684 whole entry) above
Procedure for BubR1/Bub3: To determine the affinity of the complexes to MELTp repeats, we used MicroScale Thermophoresis (MST). Purified BubR1/Bub3 and Bub1(1–553)/Bub3 complexes were fluorescently labelled with maleimide chemistry for these measurements and tested for their ability to bind phosphorylated MELT12, MELT16 and MELT18 peptides (Fig. 2e–g; Supplementary Fig. 2). […] We conducted the affinity measurements at 50 mM NaCl as this produced the best quality data for the Bub1(1–553)/Bub3 complex.
MST experiments were performed on a NanoTemper Monolith NT.115 instrument with blue/red channels. Both complexes, BubR1/Bub3 and Bub1(1–553)/Bub3, were labelled using the Monolith NT Protein Labeling kit RED-MALEIMIDE (NanoTemper Technologies GmbH) according to the supplied protocol. The labelling efficiency was ∼90% and 75%, respectively, and it was estimated by independent measurements of the protein concentration combining spectroscopic measurements and a NT-647 red dye calibration curve in the corresponding MST interaction buffer. Samples were prepared in MST buffer (50 mM HEPES (pH 7.8), 200 mM NaCl, 0.5 mM TCEP, 0.05% Tween 20 or 50 mM Tris (pH 7.8), 50 mM NaCl, 0.5 mM TCEP and 0.05% Tween 20), loaded into premium coated capillaries and measurements were performed at 40% MST power. Laser off/on times were 5 and 30 s, respectively. The fluorescently labelled BubR1/Bub3 and Bub1(1–553)/Bub3 were used at concentrations of 25 and 12.5 nM, respectively, at 40% light-emitting diode power for all peptides except for the double-phosphorylated MELT12 peptide in MST buffer 50 mM Tris (pH 7.8), 50 mM NaCl, 0.5 mM TCEP and 0.05% Tween 20 that were performed at 4 nM concentration of the labelled proteins and 80% light-emitting diode power. […] The fraction of bound protein was derived from the averaged (1 s averaged) normalized fluorescence signals at t=8 s of the labelled complexes at different ligand concentrations. […] The number of independent repeats was three for all measurements and error bars show the s.d. between these independent repeats.
Procedure for HeLa cells: (a) Outline of the synchronization protocol used in this study. Left, RNAi and rescue protocol; right, Bub1 CRISPR/Cas9 knockout protocol. (b) HeLa cells were treated with a control RNAi oligo (luciferase) or an RNAi oligo targeting Bub1 for 48 h and arrested in mitosis using nocodazole for 2 h. Cells were fixed and stained with 4,6-diamidino-2-phenylindole (DAPI), CREST (centromere marker) and Bub1 antibodies. (c,e,g,i) The kinetochore levels of Bub1, BubR1 and KNL1 were determined in the indicated conditions and normalized to CREST. An unpaired t-test was used for statistical comparison of the different samples in e. […] (f) HeLa cells were transfected with Cas9 protein with guide RNA against Bub1 gene for 96 h and treated with nocodazole for 2 h. […] At least 160 individual kinetochores from eight cells were measured in each condition. […]
Cells growing on coverslips were washed once with PBS and fixed with 4% paraformaldehyde in PHEM buffer (60 mM PIPES, 25 mM HEPES, pH 6.9, 10 mM EGTA and 4 mM MgSO4) for 20 min at room temperature. […] Z-stacks 200 nm apart was recorded on a Deltavision Elite microscope (GE Healthcare), using a × 100 oil objective followed by deconvolution using Softworx before quantification. Protein intensity on kinetochores was quantified by drawing a circle closely along the rod-like CREST staining covering the interested outer kinetochore protein staining on both ends. […]

Turning to `CCCC[C@H](NC(=O)[C@H](CC(=O)O)NC(=O)[C@H](CC(N)=O)NC(=O)[C@H](CCCCN)NC(=O)[C@H](CC(=O)O)NC(=O)[C@H](CC(=O)O)NC(=O)[C@H](CCC(=O)O)NC(=O)COCCOCCNC(=O)[C@H](CS)NC(=O)COCCOCCNC(=O)CCCC[C@@H]1SC[C@@H]2NC(=O)N[C@@H]21)C(=O)N[C@@H](CC(=O)O)C(=O)N[C@H](C(=O)N[C@H](C(=O)N[C@@H](CCCCN)C(=O)N[C@@H](CO)C(=O)N[C@@H](Cc1ccc(O)cc1)C(=O)N[C@H](C(=O)N[C@H](C(=O)N[C@@H](CCC(=O)O)C(=O)N[C@H](C(=O)N[C@@H](CC(N)=O)C(N)=O)[C@@H](C)CC)[C@@H](C)CC)[C@@H](C)O)[C@@H](C)OP(=O)(O)O)[C@@H](C)CC` [MELT12p], the “Binding of BubR1/Bub3 to phosphorylated MELT peptide, in words” value (“Binding of BubR1/Bub3” for short) at BubR1/Bub3 is “bound”. On Bub1(1–553)/Bub3, the “Binding of Bub1(1–553)/Bub3 to phosphorylated MELT peptide, in words” value (“Binding of Bub1(1–553)/Bub3” below) is listed as “bound”.
On to `CCCC[C@H](NC(=O)[C@H](CC(=O)O)NC(=O)[C@H](CC(N)=O)NC(=O)[C@H](CCCCN)NC(=O)[C@H](Cc1c[nH]cn1)NC(=O)[C@H](CC(N)=O)NC(=O)[C@@H](N)CCC(=O)O)C(=O)N[C@@H](CC(=O)O)C(=O)N[C@H](C(=O)N[C@H](C(=O)N[C@@H](CCC(N)=O)C(=O)N[C@@H](CO)C(=O)N[C@@H](CS)C(=O)N[C@@H](CCCC)C(=O)N[C@H](C(=O)N[C@@H](CCC(=O)O)C(=O)N[C@H](C(=O)N[C@@H](CC(=O)O)C(=O)N[C@@H](Cc1ccc(O)cc1)C(N)=O)[C@@H](C)CC)C(C)C)[C@@H](C)OP(=O)(O)O)[C@@H](C)CC` [MELT16p] (H-ENHKND[Nle]DI[pT]QSC[Nle]VEIDY-NH2; N-terminus assumed), for which the “Binding of BubR1/Bub3” value at BubR1/Bub3 was “bound”. Further, the “Binding of Bub1(1–553)/Bub3” value at Bub1(1–553)/Bub3 was “bound”.
On to `c1nc2nc(Nc3ccc(N4CCOCC4)cc3)nc(NC3CCCCC3)c2[nH]1` [reversine], for which the “BubR1 kinetochore levels remaining (normalized to CREST)” value in the assay with HeLa cells is recorded as ~10%.
For “TDNYSDLEV-Tp-DSHTVFID-amide [MELT18p, single-phosphorylated MELT18 peptide from KNL1]”, on BubR1/Bub3, the “Binding of BubR1/Bub3” value is given as “no binding was detected”. Besides, at BubR1/Bub3 (50 mM Tris pH 7.8, 50 mM NaCl, 0.5 mM TCEP, 0.05% Tween 20, labelled BubR1/Bub3 25 nM (4 nM for double-phosphorylated MELT12), three independent repeats), the “BubR1/Bub3 KD” value is listed as “No binding”. Also, the “Binding of Bub1(1–553)/Bub3” value at Bub1(1–553)/Bub3 was “no binding was detected”. In addition, the “Bub1(1–553)/Bub3 KD” value at Bub1(1–553)/Bub3 (50 mM Tris pH 7.8, 50 mM NaCl, 0.5 mM TCEP, 0.05% Tween 20, labelled Bub1(1–553)/Bub3 12.5 nM (4 nM for double-phosphorylated MELT12), three independent repeats) is on record as “No binding”.
